Columns and labels:
[1] = system: monocytes; experiment: In vitro monocyte activation by LPA; type: cell-based
[2] = system: CD3+ CD4+ and CD3+ CD8+ T cells in PBMC; experiment: LPA induced T cell activation assay (HLADR and CD38 co-expression, flow cytometry); type: cell-based, human; conditions: 100 uM LPA
Description: FIGS. 4(A-B) are a series of charts showing LPA dependent T cell activation. 500,000 PBMC from 5 healthy controls and 3 untreated HIV infected subjects were cultured overnight in the absence or presence of PHA, followed by 3 days of culture in media or 100 uM LPA. Proportion of CD3^+ CD4^+ (Panel A) and CD3^+ CD8^+ (Panel B) T cells that express of HLA DR and CD38 are shown. Statistical analysis shown for all 8 subjects combined. Comparisons between presence and absence of LPA in PHA pre-treated healthy control CD4 and CD8 activation were also significant (P=0.04, P=0.04).
To determine whether LPA can directly contribute to immune activation we have conducted LPA induced T cell activation assays using HLADR and CD38 co-expression as a readout (FIG. 4).

[3] = biological target: ENPP2 (Mus musculus, UniProt Q9R1E6); set-up: species or system mice; conditions: in vivo, 30 mg/kg

Compound | Monocyte activation [1] | T cell activation (HLADR and CD38 co-expression) ([2]; PBMC from healthy controls and untreated HIV infected subjects, 4 day culture, with or without PHA) | Activation in the CD4 compartment ([2]; regardless of pre-activation, more robust with PHA pre-activation) | Reversal of deleterious effect on T cell function and neoantigen response [3]
lysophosphatidic acid [LPA] | activated monocytes | enhanced T cell activation | Activation was observed | 
O=C(CCN1CCN(C(=O)OCc2cc(Cl)cc(Cl)c2)CC1)c1ccc2[nH]c(=O)oc2c1 [PF-8380] |  |  |  | at least partially reversed
